Read-outs that look alike come from different tables or passages of the source.
Key:
[1] = target: T1, human bradykinin 1 receptor (B1R) (Homo sapiens, UniProt P46663); assay: Functional investigation on the human bradykinin 1 receptor (B1R), Ca2+ FLIPR assay in CHO K1 hB1R cells; type: cell-based; details: test substance 10 μM; for inhibition at 10 µM: CHO-K1, B1R antagonism human, read-out: B1R Ant. h [10 μM] % Inhibition; for B1R Ant. h [10 μM] % Inhibition: B1R antagonism human
T1 construct: expressed in transfected cells; host or cells: CHO K1 cells
T1 sequence (P46663 1-353): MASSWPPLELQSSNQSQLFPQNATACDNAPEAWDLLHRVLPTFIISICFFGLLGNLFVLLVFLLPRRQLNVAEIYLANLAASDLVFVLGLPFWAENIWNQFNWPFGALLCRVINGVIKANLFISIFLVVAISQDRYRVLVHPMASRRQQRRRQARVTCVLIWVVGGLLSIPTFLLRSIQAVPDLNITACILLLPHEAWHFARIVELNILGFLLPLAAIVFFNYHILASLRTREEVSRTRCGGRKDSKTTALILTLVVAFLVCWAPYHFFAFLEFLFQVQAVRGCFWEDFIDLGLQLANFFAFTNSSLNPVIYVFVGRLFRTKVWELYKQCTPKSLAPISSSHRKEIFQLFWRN
Description: (§1) Functional Investigation on the Human Bradykinin 1 Receptor (B1R)
(§2) The agonistic or antagonistic action of substances can be determined on the bradykinin 1 receptor (B1R) of the human species and rats with the following assay. In accordance with this assay, the Ca^2+ inflow through the channel is quantified with the aid of a Ca^2=-sensitive dyestuff (type Fluo-4, Molecular Probes Europe BV, Leiden, Holland) in a fluorescent imaging plate reader (FLIPR, Molecular Devices, Sunnyvale, USA).
(§3) Chinese hamster ovary cells (CHO K1 cells) transfected stably with the human B1R gene (hB1R cells) or the B1R gene of the rat (rB1R cells) are used. For functional studies, these cells are plated out on black 96-well plates with a clear base (BD Biosciences, Heidelberg, Germany or Greiner, Frickenhausen, Germany) in a density of 20,000-35,000 cells/well. The cells are left overnight at 37° C. and 5% CO2 in culture medium (hB1R cells: Nutrient Mixture Ham's F12, Gibco Invitrogen GmbH, Karlsruhe, Germany or DMEM, Sigma-Aldrich, Taufkirchen, Germany; rB1R cells: D-MEM/F12, Gibco Invitrogen GmbH, Karlsruhe, Germany) with 10 vol. % of FBS (foetal bovine serum, Gibco Invitrogen GmbH, Karlsruhe, Germany or PAN Biotech GmbH, Aidenbach, Germany).
(§4) On the following day, the cells are loaded for 60 min at 37° C. with 2.13 μM Fluo-4 (Molecular Probes Europe BV, Leiden, The Netherlands) in HBSS buffer (Hank's buffered saline solution, Gibco Invitrogen GmbH, Karlsruhe, Germany) with 2.5 mM probenecid (Sigma-Aldrich, Taufkirchen, Germany) and 10 mM HEPES (Sigma-Aldrich, Taufkirchen, Germany). The plates are then washed 2× with HBSS buffer, and HBSS buffer which additionally contains 0.1% of BSA (bovine serum albumin; Sigma-Aldrich, Taufkirchen, Germany), 5.6 mM glucose and 0.05% of gelatine (Merck KGaA, Darmstadt, Germany) is added. After a further incubation of 20 minutes at room temperature, the plates are inserted into the FLIPR for the Ca^2+ measurement.
(§5) Alternatively, the plates are washed with buffer A (15 mM HEPES, 80 mM NaCl, 5 mM KCl, 1.2 mM CaCl2, 0.7 mM MgSO4, 2 g/l glucose, 2.5 mM probenecid), buffer A is added and the plates are loaded with 2.5 μM Fluo-4 and 0.025% of Pluronic F127 (Sigma-Aldrich, Taufkirchen, Germany). Thereafter, the cells are washed 2× with buffer A and incubated for 30 minutes with buffer A, which additionally contains 0.05% of BSA and 0.05% of gelatine, at room temperature and thereafter inserted into the FLIPR for the Ca^2+ measurement.
(§6) The Ca^2+-dependent fluorescence is measured before and after addition of substances (λex=488 nm, λem=540 nm). Quantification is by measurement of the highest fluorescence intensity (FC, fluorescence counts) over time.
(§7) The FLIPR protocol consists of 2 additions of substance. Test substances (10 μM) are first pipetted on to the cells and the Ca^2+ inflow is compared with the control (hB1R: Lys-Des-Arg^9-bradykinin >=50 nM; rB1R: Des-Arg^9-bradykinin 10 μM). This gives the information in % activation based on the Ca^2+ signal after addition of Lys-Des-Arg^9-bradykinin (>=50 nM) or Des-Arg^9-bradykinin (10 μM).
(§8) After incubation for 10-20 minutes, Lys-Des-Arg^9-bradykinin (hB1R) or Des-Arg^9-bradykinin (rB1R) is applied in the concentration of the EC80 and the inflow of Ca^2+ is likewise determined.
(§9) Antagonists lead to a suppression of the Ca^2+ inflow. % inhibition compared with the maximum achievable inhibition is calculated.
(§10) To determine the IC50 value, the substances are added in various concentrations. Duplicate or triplicate determinations (n=2 or n=3) are carried out, and these are repeated in at least one further independent experiment (N>=2).
(§11) Preferably, the compounds have a B1R antagonistic action on the human receptor and/or on the rat receptor. The following data are given by way of example in the following table: (In this, “B1R Ant. h” represents “B1R antagonism human” and “B1R Ant. r” represents “B1R antagonism rat”)

human μ opiate receptor = target: T2, human μ opiate receptor (Homo sapiens, UniProt P35372); assay: Affinity for the human μ opiate receptor ([3H]-naloxone displacement, CHO-K1 receptor membrane preparation, SPA); type: binding; details: test concentration of 1 μM
T2 construct: purchased PerkinElmer Life Sciences, Zaventem, Belgium RB-HOM; host or cells: CHO-K1 cells (membrane preparation)
Experimental: Binding data of the compounds on the μ opioid receptor and data on the inhibition of reuptake of serotonin (5-HT) are given in Table 1. The data for the μ receptor were measured at a test concentration of 1 μM, and those for the serotonin reuptake at 10 μM. The values are stated in % inhibition.
Investigation of the Activity of the Compounds of the Invention Method for Determining the Affinity for the Human μ Opiate Receptor
The receptor affinity for the human p opiate receptor is determined in a homogeneous set-up in microtitre plates. For this, dilution series of the substances to be tested are incubated with a receptor membrane preparation (15-40 μg of protein/250 μl of incubation batch) of CHO-K1 cells which express the human p opiate receptor (RB-HOM receptor membrane preparation from PerkinElmer Life Sciences, Zaventem, Belgium) in the presence of 1 nmol/l of the radioactive ligand [^3H]-naloxone (NET719, PerkinElmer Life Sciences, Zaventem, Belgium) and 1 mg of WGA-SPA-Beads (wheat germ agglutinin SPA beads from Amersham/Pharmacia, Freiburg, Germany) in a total volume of 250 μl for 90 minutes at room temperature. 50 mmol/l of Tris-HCl supplemented with 0.06% of bovine serum albumin is used as the incubation buffer. 100 μmol/l of naloxone are additionally added for determination of the non-specific binding. After the end of the ninety-minute incubation time, the microtitre plates are centrifuged for 20 minutes at 1,000 g and the radioactivity is measured in a β-counter (Microbeta-Trilux, PerkinElmer Wallac, Freiburg, Germany). The percentage displacement of the radioactive ligand from its binding to the human p opiate receptor is determined at a concentration of the test substances of 1 μmol/l and stated as the percentage inhibition of the specific binding. Starting from the percentage displacement by various concentrations of the test substances, IC50 inhibitory concentrations which cause a 50 percent displacement of the radioactive ligand are calculated. By conversion by means of the Cheng-Prusoff relationship, Ki values for the test substances are obtained.

[2] = target: T3, bradykinin 1 receptor (B1R) of the rat (Rattus norvegicus, UniProt P97583); assay: Functional investigation on the rat bradykinin 1 receptor (B1R), Ca2+ FLIPR assay in CHO K1 rB1R cells; type: cell-based; details: CHO-K1, B1R antagonism rat; test substance 10 μM; Ca2+ FLIPR, CHO K1 rB1R cells; read-out: B1R Ant. r [10 μM] % Inhibition
T3 construct: expressed in transfected cells; host or cells: CHO K1 cells
T3 sequence (P97583 1-337): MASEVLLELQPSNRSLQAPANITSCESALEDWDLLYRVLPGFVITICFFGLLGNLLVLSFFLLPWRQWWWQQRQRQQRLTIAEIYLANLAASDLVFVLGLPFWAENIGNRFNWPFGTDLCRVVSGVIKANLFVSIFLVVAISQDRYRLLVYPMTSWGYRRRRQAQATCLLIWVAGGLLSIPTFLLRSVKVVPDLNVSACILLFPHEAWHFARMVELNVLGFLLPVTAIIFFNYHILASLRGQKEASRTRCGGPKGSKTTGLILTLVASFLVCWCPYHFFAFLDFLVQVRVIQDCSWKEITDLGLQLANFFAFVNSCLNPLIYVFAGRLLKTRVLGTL
Description: as §1, §2, §3, §4, §5, §6, §7, §8, §9, §10, §11

T2 sequence (P35372 whole entry): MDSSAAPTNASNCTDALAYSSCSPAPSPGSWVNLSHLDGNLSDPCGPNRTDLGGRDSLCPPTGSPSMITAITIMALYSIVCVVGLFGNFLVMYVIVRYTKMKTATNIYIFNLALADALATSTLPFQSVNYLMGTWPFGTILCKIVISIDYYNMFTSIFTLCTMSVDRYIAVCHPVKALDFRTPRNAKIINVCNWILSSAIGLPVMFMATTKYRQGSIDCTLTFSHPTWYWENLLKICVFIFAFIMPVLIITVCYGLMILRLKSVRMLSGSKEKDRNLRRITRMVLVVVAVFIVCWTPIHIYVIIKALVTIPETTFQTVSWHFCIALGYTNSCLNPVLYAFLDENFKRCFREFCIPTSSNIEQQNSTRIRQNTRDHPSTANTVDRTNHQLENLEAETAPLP

Row | Structure (SMILES) | μ (binding on the μ opioid receptor, % inhibition) (human μ opiate receptor) [%] | B1R Ant. h [10 μM] % Inhibition ([1]; Ca2+ FLIPR, CHO K1 hB1R cells) [%] | also measured
1 | Cc1ccc(S(=O)(=O)N2CCC(OCC(=O)NC3CCC(C(c4ccccc4)N(C)C)CC3)C2)cc1 (centres unmarked) [Example 123, N-(4-((dimethylamino)(phenyl)methyl)cyclohexyl)-2-(1-tosylpyrrolidin-3-yloxy)acetamide] | – | – | inhibition at 10 µM ([1]; Ca2+ FLIPR, CHO K1 hB1R cells): -6%; inhibition at 1 µM (human μ opiate receptor; read-out: μ (binding on the μ opioid receptor, % inhibition)): 27%
2 | CC(Oc1ccccc1)C(=O)NC1CCC(C(c2ccc(F)cc2)N(C)C)CC1 (centres unmarked) [Example 516] | 40 | – | –
3 | CN(C)C(c1ccccc1)C1CCC(NC(=O)COCCN(C)S(=O)(=O)c2ccc(F)cc2)CC1 (centres unmarked) [Example 585] | 41 | −10 | –
4 | CN(C)C(c1ccccc1)C1CCC(NC(=O)COCCN(C)S(=O)(=O)c2ccccc2)CC1 (centres unmarked) [Example 588] | 29 | 6 | –
5 | CN(C)C(c1ccccc1)C1CCC(NC(=O)COCCN(C)S(=O)(=O)c2ccc(Cl)cc2)CC1 (centres unmarked) [Example 589] | 25 | 28 | –
6 | COc1ccc(S(=O)(=O)N(C)CCOCC(=O)NC2CCC(C(c3ccccc3)N(C)C)CC2)cc1 (centres unmarked) [Example 590] | 75 | −1 | –
7 | CN(C)C(c1ccccc1)C1CCC(NC(=O)COC2CCN(S(=O)(=O)c3ccc(F)cc3)C2)CC1 (centres unmarked) [Example 591] | 93 | 0 | –
8 | COc1ccc(S(=O)(=O)N(C)CCOCC(=O)NC2CCC(C(c3ccccc3)N(C)C)CC2)cc1OC (centres unmarked) [Example 592] | 83 | 1 | –
9 | CN(C)C(c1ccccc1)C1CCC(NC(=O)COCCN(C)S(=O)(=O)c2cccc(C(F)(F)F)c2)CC1 (centres unmarked) [Example 593] | 91 | 56 | –
10 | CN(C)C(c1ccccc1)C1CCC(NC(=O)COCCN(C)S(=O)(=O)c2ccc(OC(F)(F)F)cc2)CC1 (centres unmarked) [Example 594] | 94 | 20 | –
11 | CN(C)C(c1ccccc1)C1CCC(NC(=O)COC2CCN(S(=O)(=O)c3ccccc3)C2)CC1 (centres unmarked) [Example 595] | 51 | 15 | –
12 | CN(C)C(c1ccccc1)C1CCC(NC(=O)COC2CCN(S(=O)(=O)c3ccc(Cl)cc3Cl)C2)CC1 (centres unmarked) [Example 596] | 84 | 32 | –
13 | CN(Cc1ccccc1)C(c1ccccc1)C1CCC(NC(=O)COCCN(C2CC2)S(=O)(=O)c2c(Cl)cc(Cl)cc2Cl)CC1 (centres unmarked) [Example 604, N-{4-[(benzylmethylamino)-phenylmethyl]-cyclohexyl}-2-{2-[cyclopropyl-(2,4,6-trichlorobenzenesulfonyl)-amino]-ethoxy}-acetamide] | – | – | inhibition at 10 µM [2]: 33%; inhibition at 10 µM ([1]; Ca2+ FLIPR, CHO K1 hB1R cells): -18%
14 | COc1ccc(-c2noc(C(=O)NCC(=O)NC3CCC(C(CCc4ccccc4)N(C)C)CC3)n2)cc1OC (centres unmarked) [Example 794, 3-(3,4-dimethoxy-phenyl)-[1,2,4]oxadiazole-5-carboxylic acid {[4-(1-dimethylamino-3-phenyl-propyl)-cyclohexylcarbamoyl]-methyl}-amide] | – | – | inhibition at 10 µM ([1]; Ca2+ FLIPR, CHO K1 hB1R cells): 1%
15 | CN(C)C(CCc1ccccc1)C1CCC(NC(=O)CNC(=O)c2nc(-c3ccc(Cl)cc3Cl)no2)CC1 (centres unmarked) [Example 795, 3-(2,4-dichloro-phenyl)-[1,2,4]oxadiazole-5-carboxylic acid {[4-(1-dimethylamino-3-phenyl-propyl)-cyclohexylcarbamoyl]-methyl}-amide] | – | – | inhibition at 10 µM ([1]; Ca2+ FLIPR, CHO K1 hB1R cells): 103%
16 | Cc1ccc(F)cc1-c1noc(C(=O)NCC(=O)NC2CCC(C(CCc3ccccc3)N(C)C)CC2)n1 (centres unmarked) [Example 796, 3-(5-fluoro-2-methyl-phenyl)-[1,2,4]oxadiazole-5-carboxylic acid {[4-(1-dimethylamino-3-phenyl-propyl)-cyclohexylcarbamoyl]-methyl}-amide] | – | – | inhibition at 10 µM ([1]; Ca2+ FLIPR, CHO K1 hB1R cells): 94%
17 | CN(C)C(CCc1ccccc1)C1CCC(NC(=O)CCNC(=O)c2nc(-c3cccs3)no2)CC1 (centres unmarked) [Example 797, 3-thiophen-2-yl-[1,2,4]oxadiazole-5-carboxylic acid {2-[4-(1-dimethylamino-3-phenyl-propyl)-cyclohexylcarbamoyl]-ethyl}-amide] | – | – | inhibition at 10 µM ([1]; % inhibition compared with the maximum achievable inhibition): 0%

From patent US8106055B2, “Substituted amide compounds” (Gruenenthal GmbH, priority 2007, dated 2012)
